Assay results as given in patent US5061706A, “2,3-quinoxalinediones for use as neuroleptics” (priority 1988, dated 1991).
Converted amounts (≈) assume the structure as drawn. Blank lines part the entries; values can stand above or below the molecule they belong to.

Legend:
[1] = test system: NMDA (N-methyl-D-aspartate) receptors; conditions: in words, literature; cited from earlier work
[2] = test system: quisqualate receptors; conditions: in words, literature; cited from earlier work
[3] = molecular target: quisqualate type receptors; test: 3H-AMPA binding (displacement of 3H-AMPA from quisqualate type receptors, rat cerebral cortical membrane homogenate); conditions: concentration causing 50% displacement of specific 3H-AMPA binding; Hill analysis; pH 7.1, 0° C., 30 min
Description: The pharmacological properties of the compounds of the present invention can be illustrated by determining their capability for displacing radioactively labelled 2-amino-3-hydroxy-5-methyl-4-isoxazolepropionic acid (AMPA) from the quisqualate type receptors.
The displacement activity of the compounds may be shown by determining the IC50 value which represents the concentration (μg/ml) which causes a displacement of 50% of the specific binding of ^3 H-AMPA.
500 μl of thawed rat cerebral cortical membrane homogenate in Tris-HCl (30 mM), CaCl2 (2.5 mM) and KSCN (100 mM) pH 7.1 were incubated at 0° C. for 30 min. with 25 μl ^3 H-AMPA (5 nM final concentration) and the test compound and buffer. Nonspecific binding was determined by incubation with L-glutamic acid (600 μM final concentration). The binding reaction was terminated by adding 5 ml of ice-cold buffer followed by filtration through Whatman GF/C glass fibre filters and 2×5 ml wash with ice-cold buffer. Bound radioactivity was measured by scintillation counting. IC50 was determined by Hill analysis of at least four concentrations of test compound.

[4] = molecular target: quisqualic acid stimulated 3H-GABA efflux from cultured cortical neurones (quisqualate receptors); test: Release experiments: antagonism of quisqualic acid stimulated 3H-GABA efflux from cultured cortical neurones; format: cell-based, mouse; conditions: Table 1 Ki; test not stated
Description: The pharmacological properties of the compounds of the present invention can be illustrated by determining their capability for displacing radioactively labelled 2-amino-3-hydroxy-5-methyl-4-isoxazolepropionic acid (AMPA) from the quisqualate type receptors. […]
Cerebral cortices of 16 day old mouse embryos are chopped in 0.4×0.4 mm cubes. The tissue is dissociated by mild trypsinization (0.1% (wt/vol) trypsin, 37° C., 15 min) and subsequently inoculated into poly-L-lysine-coated 3 cm Petri dishes containing a slightly modified DMEM (24.5 mM KCl, 30 mM glucose) supplemented with p-aminobenzoate (7 μM), insulin (100 mU/1) and 10% (vol/vol) horse serum. Cells are maintained in culture for 5-7 days with the addition of the antimitotic agent cytosine arbinoside (40 μM) from day 2 in vitro to prevent glial proliferation. For further details and references see Drejer et al. (Exp. Brain Res. 47, 259 (1982)).
Release experiments are performed using the model described by Drejer et al. (Life Sci. 38, 2077 (1986)). Cerebral cortex interneurons cultured in Petri dishes (30 mm) are added 100 μM gamma-vinyl-GABA one hour before the experiment in order to inhibit degradation of GABA in the neurons. 30 min. before the experiment 5 μCi ^3 H-GABA is added to each culture and after this preloading period the cell monolayer at the bottom of the dish is covered with a piece of nylon mesh to protect the cells against mechanical damage and to facilitate dispersion of medium over the cell layer. The preloading medium is removed and the Petri dishes are placed in a superfusion system. This system consists of a peristaltic pump continuously delivering thermostated 37° C. superfusion medium (HEPES buffered saline (HBS): 10 mM HEPES, 135 mM NaCl, 5 mM KCl, 0.6 mM MGSO4, 1.0 mM CaCl2 and 6 mM D-glucose; pH 7.4) from a reservoir to the top of the slightly tilted Petri dish. The medium is continuously collected from the lower part of the dish and delivered to a fraction collector. Initially, the cells are superfused with HBS for 15 min. (flow rate 2 ml/min.). The cells are stimulated for 30 sec. every 4 min. by changing the superfusion medium from HBS to a corresponding medium containing quisqualate and test compound. The release of ^3 H-GABA in the presence of quisqualate (stimulated release in cpm) are corrected for the mean basal release (Cpm) before and after the stimulation.

[5] = test system: kainate receptors; conditions: in words, literature; cited from earlier work

SMILES: N[C@H](CCC(=O)O)C(=O)O [D-glutamic acid]
agonist or antagonist activity on NMDA receptors [1]: strong to moderate agonist activity

SMILES: N[C@@H](CCS(=O)(=O)O)C(=O)O [L-homocysteic acid]
agonist or antagonist activity on NMDA receptors [1]: strong to moderate agonist activity

SMILES: CCOC(=O)CC[C@H](N)C(=O)OCC [GDEE, Glutamic acid diethyl ester]
agonist or antagonist activity on quisqualate receptors [2]: selective but very weak antagonist

SMILES: N[C@H](CCCCCP(=O)(O)O)C(=O)O [D-APH, 2-amino-7-phosphonoheptanoic acid]
agonist or antagonist activity on NMDA receptors [1]: most potent and selective antagonists

SMILES: N[C@H](CCCP(=O)(O)O)C(=O)O [D-APV, 2-amino-5-phosphono-valeric acid]
agonist or antagonist activity on NMDA receptors [1]: most potent and selective antagonists

SMILES: N[C@@H](Cn1oc(=O)[nH]c1=O)C(=O)O [quisqualic acid]
agonist or antagonist activity on quisqualate receptors [2]: activated selectively

SMILES: Cc1onc(O)c1CC(N)C(=O)O (stereo not drawn) [AMPA, 2-amino-3-hydroxy-5-methyl-4-isoxazolepropionic acid]
agonist or antagonist activity on quisqualate receptors [2]: potent agonists

SMILES: N[C@@H](CCC(=O)O)C(=O)O [L-glutamic acid]
agonist or antagonist activity on quisqualate receptors [2]: potent agonists

SMILES: N[C@H](C(=O)O)c1cc(=O)[nH]o1 [Ibotenic acid]
agonist or antagonist activity on NMDA receptors [1]: strong to moderate agonist activity

IC50 [3]: 0.15 µg/mL (≈ 0.553 µM)
Ki [4]: 0.08 µg/mL (≈ 0.295 µM)
SMILES: N#Cc1cc2c(cc1C(F)(F)F)[nH]c(=O)c(=O)n2O [Example 6 d, 7-Cyano-1-hydroxy-6-trifluoromethylquinoxaline-2,3(1H,4H)-dione]

SMILES: N[C@H](CCC[C@H](N)C(=O)O)C(=O)O [diaminopimelic acid]
agonist or antagonist activity on NMDA receptors [1]: moderate antagonist activity

SMILES: N[C@H](CCCC(=O)O)C(=O)O [D-2-amino-adipic acid]
agonist or antagonist activity on NMDA receptors [1]: moderate antagonist activity

IC50 [3]: 0.09 µg/mL (≈ 0.367 µM)
Ki [4]: 0.27 µg/mL (≈ 1.1 µM)
SMILES: CC(=O)c1cc2c(cc1C#N)[nH]c(=O)c(=O)n2O [Example 34 e, 7-Acetyl-6-cyano-1-hydroxyquinoxaline-2,3(1H,4H)-dione]

IC50 [3]: 0.14 µg/mL (≈ 0.43 µM)
Ki [4]: 0.02 µg/mL (≈ 0.0615 µM)
SMILES: NS(=O)(=O)c1cc2c(cc1C(F)(F)F)[nH]c(=O)c(=O)n2O [Example 33 d, 1-Hydroxy-7-sulfamoyl-6-trifluoromethylquinoxaline-2,3(1H,4H)-dione]

SMILES: O=C(O)[C@@H]1CCCN[C@H]1C(=O)O (relative stereo) [trans-2,3-PDA, trans-2,3-piperidine dicarboxylic acid]
agonist or antagonist activity on NMDA receptors [1]: strong to moderate agonist activity

SMILES: NC(CCC(=O)NCC(=O)O)C(=O)O (stereo not drawn) [3-glutamyl-glycine]
antagonism / inhibition of binding at kainate receptors [5]: some selectivity for kainate receptors

IC50 [3]: 0.37 µg/mL (≈ 1.32 µM)
Ki [4]: 0.12 µg/mL (≈ 0.428 µM)
SMILES: O=c1[nH]c2cc(C(F)(F)F)c(Cl)cc2n(O)c1=O [Example 30 d, 7-chloro-1-hydroxy-6-trifluoromethylquinoxaline-2,3(1H,4H)-dione]
